Assay results: PubChem BioAssay AID1259408 (Genetic Toxicology Data Bank (GENE-TOX), 2018)
Activity calls are given as the source filed them. The rule behind the calls is not given here.

System: GENE-TOX genotoxicity assays, various organisms and cells
Test: GENE-TOX mutagenicity studies
Conditions: Species/Cell Type: Mammalian polychromatic erythrocytes; Assay Type: Micronucleus test, chromosome aberrations; Assay Code: MNT+U; Dose Response: Unconfirmed positive response; Evaluation Type: Evaluation B (Post-1980)
Excerpt: GENE-TOX provides genetic toxicology (mutagenicity) test data from expert peer review of open scientific literature for more than 3,000 chemicals from the United States Environmental Protection Agency (EPA). GENE-TOX was established to select assay systems for evaluation, review data in the scientific literature, and recommend proper testing protocols and evaluation procedures for these systems.
GENE-TOX covers the years 1991 - 1998. It is no longer updated.
This is an archive assay for GENE-TOX mutagenicity studies.

CN(C)C(=S)SC(=S)N(C)C
mutagenic call: active; positive
